{"source": "paper PMC6491884", "about": "“Synthesis and Biological Evaluation of 4β-N-Acetylamino Substituted Podophyllotoxin Derivatives as Novel Anticancer Agents” (Frontiers in Chemistry, 2019)", "key": {"HeLA cells [1]": {"test_system": "HeLA cells", "assay": "Hoechst 33258 staining, HeLA", "format": "cell-based, human", "details": "0.75/1.5/3.0 μM, 24 h, vs vehicle 0.1% DMSO", "experimental": "(§1) Apoptosis is one of the major pathways leading to the process of cell death. Visualization of chromatin condensation as well as nuclear shrinking and fragmentation—known as classic characteristics of apoptosis—was carried out in the presence of a representative compound 12g by staining T24 and HeLA cells with Hoechst 33258, by which apoptosis was confirmed as the cause of reduced cell viability.\n(§2) T24 and HeLA cells were seeded at a density of 3 × 10^4 cells per well and cultured in 6 well-plates on a cover slip for 24 h at 37°C. Compound 12g treated T24 and HeLA cancer cells for 24 h at 37°C with concentrations of 0.5/1.0/2.0 and 0.75/1.5/3.0 μM, respectively. Afterward, the treated cells were fixed with 4% paraformaldehyde (PFA) for 30 min and stained with 5 μg/mL Hoechst 33258 (bis-benzimide; KeyGEN Bio TECH, China) for 30 min. Nuclei were stained with Hoechst 33258 to examine chromatin condensation or nuclear fragmentation, morphological characteristics of apoptosis. After the cells were washed twice with PBS, the cover slip was inverted and placed on a glass slide and mounted. Apoptotic cells with fluorescence of the soluble DNA fragments were detected directly and photographed under a phase contrast microscope (OLYMPUS IX51, Japan) in a Varian Fluorometer at an excitation wavelength of 365 nm and emission wavelength of 460 nm (Shareef et al., [2015])."}, "T24 cells [2]": {"test_system": "T24 cells", "assay": "Cell cycle distribution analysis (FACS, propidium iodide), T24", "format": "cell-based, human", "experimental": "(§3) Flow cytometry analysis was carried out to evaluate cell cycle changes and gain further insight into the mode of action with respect to the anti-proliferative effect of compound 12g. HeLA and T24 cancer cells were treated with the selected compound 12g for […] at three different gradient concentrations. The cell cycle accumulation was examined by the propidium iodide staining and cytometric quantification after the cancer cells were cultured for 24 h.\nTo understand the cell cycle effect of the synthesized analogs, cell cycle distribution analysis was performed by FACS (Becton Dickinson, San Jose, CA, USA). […] After treatment, the cells were washed once with PBS and fixed with 70% ice-cold ethanol at […] for overnight. Ethanol was removed by Centrifugation. The cells were stained with a solution containing 0.1% Triton-X 100 (Sigma), 0.2 mg/mL RNase (Sigma), and […] propidium iodide (PI, Sigma) in the dark for 30 min at room temperature. Then, cell cycle distribution was analyzed by using a FACS can flow cytometer (Chen et al., [2013])."}, "[3]": {"test_system": "H460 (human non-small cell lung carcinoma)", "assay": "MTT growth inhibition assay, H460", "format": "cell-based", "details": "NCI-H460, 48 h, read-out: IC50 (μM) H460", "experimental": "(§4) Target compounds 12a–t were evaluated for in vitro cytotoxicity against four human tumor cell lines, including H460 (non-small cell lung carcinoma), HeLA (human cervical carcinoma), EC9706 (human esophageal squamous cell carcinoma), and T24 (human bladder carcinoma), using HaCaT (human immortalized epidermal cells) as a human non-malignant cell line. Etoposide (3) was included as a positive control. The screening procedure was based on the 3-(4, 5-dimethylthiazol-2-yl)-2, 5-diphenyltetrazoliun bromide (MTT) growth inhibition assay with triplicate experiments, and the results are summarized in Table 1.\n(§5) The four human cancer cell lines and a normal human epidermal cell line of the screening panel, including H460 (human non-small cell lung carcinoma), HeLA (human cervical carcinoma), EC9706 (human esophageal squamous cell carcinoma), T24 (human bladder carcinoma), and HaCaT (human immortalized epidermal cells), were purchased from American Type Culture Collection (ATCC, Manassas, VA, U.S.A.). H460, EC9706, and T24 were maintained in RPMI 1640 medium containing 10% Fetal Bovine Serum, 100 units/ml penicillin, 100 μg/ml streptomycin under humidified incubator with 5% CO2 atmosphere at 37°C. HeLA and HaCaT were maintained in Dulbecco′s […] (DMEM) supplemented with 10% Fetal Bovine Serum 100 units/ml penicillin, 100 μg/ml streptomycin in a humidified incubator and 5% CO2 atmosphere at 37°C. Logarithmically growing cells were used for the following experiments.\n(§6) The cytotoxicity of the synthesized compounds 12a–t against a panel of human cell lines was determined by the 3-(4,5-dimethylthiazol-2-yl)-2,5-diphenyltetrazoliun bromide (MTT) growth inhibition assay. The five human cell lines were, respectively, plated in 96-well-culture plates at the density of 1 × 10^5 cells per well and incubated for 24 h. Cells were exposed to different concentrations of synthetic podophyllotoxin derivatives for 48 h. MTT was added with a dose of 5 mg/mL in phosphate-buffered saline. After incubation for 4 h at 37°C, the purple formazan crystals were dissolved with […] dimethyl sulfoxide and the absorbance was measured at 570 nm in an ELISA reader. Antiproliferative activity was expressed using the IC50 value defined as the concentration of synthetic podophyllotoxin derivatives inhibiting cell proliferation by 50%. The cell viability ratio was calculated by the following formula: cell viability ratio (%) = OD treated /OD control × 100% (Ma et al., [2014])."}, "[4]": {"test_system": "HaCaT (human immortalized epidermal cells)", "assay": "MTT growth inhibition assay, HaCaT normal cells", "format": "cell-based", "details": "48 h, read-out: IC50 (μM) HaCaT, MTT, 48 h, n = 3, normal cell line", "experimental": "as §4, §5, §6"}, "[5]": {"test_system": "EC9706 (human esophageal squamous cell carcinoma)", "assay": "MTT growth inhibition assay, EC9706", "format": "cell-based", "details": "EC9706, 48 h, read-out: IC50 (μM) EC9706", "experimental": "as §4, §5, §6"}, "[6]": {"test_system": "T24 (human bladder carcinoma)", "assay": "MTT growth inhibition assay, T24", "format": "cell-based", "details": "T24, 48 h, read-out: IC50 (μM) T24, MTT, 48 h, n = 3", "experimental": "as §4, §5, §6"}, "[7]": {"test_system": "HeLA (human cervical carcinoma)", "assay": "MTT growth inhibition assay, HeLA", "format": "cell-based", "details": "Homo sapiens, 48 h, read-out: IC50 (μM) HeLA, MTT, 48 h, n = 3", "experimental": "as §4, §5, §6"}, "T24 cells [8]": {"test_system": "T24 cells", "assay": "Hoechst 33258 staining, T24", "format": "cell-based, human", "details": "T24, 0.5/1.0/2.0 μM, 24 h, vs vehicle 0.1% DMSO", "experimental": "as §1, §2"}, "HeLA cells [9]": {"test_system": "HeLA cells", "assay": "Cell cycle distribution analysis (FACS, propidium iodide), HeLA", "format": "cell-based, human", "details": "24 h", "experimental": "as §3\nTo understand the cell cycle effect of the synthesized analogs, cell cycle distribution analysis was performed by FACS (Becton Dickinson, San Jose, CA, USA). T24 and HeLA cells were treated with compound 12g for 24 h at 37°C with concentrations of 0.5/1.0/2.0 and 0.75/1.5/3.0 μM, respectively. After treatment, the cells were washed once with PBS and fixed with 70% ice-cold ethanol at […] for overnight. Ethanol was removed by Centrifugation. The cells were stained with a solution containing 0.1% Triton-X 100 (Sigma), 0.2 mg/mL RNase (Sigma), and […] propidium iodide (PI, Sigma) in the dark for 30 min at room temperature. Then, cell cycle distribution was analyzed by using a FACS can flow cytometer (Chen et al., [2013])."}}}
{"compound": "CCCN(CCC)CC(=O)NC1c2cc3c(cc2C(c2cc(OC)c(O)c(OC)c2)C2C(=O)OCC12)OCO3", "note": "(stereo not shown) [Compound 12g]", "values": [{"measurement": "apoptotic morphology (Hoechst 33258 staining)", "setting": "HeLA cells [1]", "value": "markedly increased chromatin condensation, nuclear fragmentation and morphological changes"}, {"measurement": "accumulation of T24 cells at G2/M phase", "setting": "T24 cells [2]; T24, 0.75 μM as printed in text", "value": 65.15, "unit": "%"}, {"measurement": "accumulation of T24 cells at G2/M phase", "setting": "T24 cells [2]; T24, 1.5 μM as printed in text", "value": 62.76, "unit": "%"}, {"measurement": "accumulation of T24 cells at G2/M phase", "setting": "T24 cells [2]; T24, 3.0 μM as printed in text", "value": 79.87, "unit": "%"}, {"measurement": "IC50", "setting": "[3]", "value": "24.2 ± 0.77", "unit": "µM"}, {"measurement": "IC50", "setting": "[4]", "value": "> 50", "unit": "µM"}, {"measurement": "IC50", "setting": "[5]", "value": "> 50", "unit": "µM"}, {"measurement": "IC50", "setting": "[6]", "value": "2.98 ± 0.26", "unit": "µM"}, {"measurement": "IC50", "setting": "[7]", "value": "2.34 ± 0.39", "unit": "µM"}, {"measurement": "apoptotic morphology (Hoechst 33258 staining)", "setting": "T24 cells [8]", "value": "markedly increased chromatin condensation, nuclear fragmentation and morphological changes"}, {"measurement": "Cell cycle phase (%) G2/M", "setting": "HeLA cells [9]; 0.75 uM", "value": 79.69, "unit": "%"}, {"measurement": "Cell cycle phase (%) G2/M", "setting": "HeLA cells [9]; 1.5 uM", "value": 89.18, "unit": "%"}, {"measurement": "Cell cycle phase (%) G2/M", "setting": "HeLA cells [9]; 3 uM", "value": 90.66, "unit": "%"}]}
